The target of one data set is T1, brain CCK receptor (Mus musculus, UniProt P56481).
T1 construct: from tissue; host or cells: forebrain membranes of male CF-1 mice
T1 sequence (P56481 1-453): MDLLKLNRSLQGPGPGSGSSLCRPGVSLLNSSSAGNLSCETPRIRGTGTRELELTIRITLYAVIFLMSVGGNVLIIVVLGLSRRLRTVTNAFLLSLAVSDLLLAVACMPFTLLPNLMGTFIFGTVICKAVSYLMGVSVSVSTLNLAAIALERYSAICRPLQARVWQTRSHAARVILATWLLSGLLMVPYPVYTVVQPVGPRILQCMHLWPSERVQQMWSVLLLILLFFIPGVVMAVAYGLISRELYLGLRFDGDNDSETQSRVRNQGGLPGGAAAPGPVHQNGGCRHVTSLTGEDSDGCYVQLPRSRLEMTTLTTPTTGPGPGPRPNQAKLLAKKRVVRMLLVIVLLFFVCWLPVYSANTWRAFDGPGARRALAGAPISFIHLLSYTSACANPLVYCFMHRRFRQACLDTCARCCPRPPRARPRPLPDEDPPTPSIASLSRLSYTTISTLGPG
Nature of the data set: CCK receptor binding, mouse brain membranes (125I-CCK-8 sulfate). Conditions: for IC50: mouse brain membranes, read-out: Brain IC50.

For a further data set, the target named is T2, gastrin receptor (Cavia porcellus, UniProt H0VZC5).
T2 construct: Guinea pig stomach fundus was obtained from male Hartley guinea pigs; from tissue; host or cells: stomach fundus mucosal membranes of male Hartley guinea pigs
T2 sequence (H0VZC5 1-426): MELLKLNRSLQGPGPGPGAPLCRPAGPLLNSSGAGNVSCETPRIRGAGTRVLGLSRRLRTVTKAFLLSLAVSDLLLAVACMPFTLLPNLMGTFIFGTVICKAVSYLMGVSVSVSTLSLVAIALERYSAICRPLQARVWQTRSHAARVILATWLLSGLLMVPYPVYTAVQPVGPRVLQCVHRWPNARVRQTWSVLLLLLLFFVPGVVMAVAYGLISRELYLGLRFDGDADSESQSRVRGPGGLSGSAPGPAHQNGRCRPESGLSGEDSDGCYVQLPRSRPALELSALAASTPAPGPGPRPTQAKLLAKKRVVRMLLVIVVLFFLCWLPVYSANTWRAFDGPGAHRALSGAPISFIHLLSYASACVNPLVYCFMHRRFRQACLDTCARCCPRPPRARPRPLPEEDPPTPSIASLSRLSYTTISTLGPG
Briefly: Gastrin binding to guinea pig stomach mucosal membranes (125I-gastrin I). To be noted: guinea pig stomach mucosal membranes; read-out: Gastrin IC50. On the procedure: The method used for gastrin binding to guinea pig stomach mucosal membranes was similar to that described by Takeuchi, Speir and Johnson (Am. J. Physiol. 237(3): E284-E294, 1979). Guinea pig stomach fundus was obtained from male Hartley guinea pigs, 300-350 g, and the mucosa was scraped off with a glass slide. The mucosa was homogenized in 50 mM Tris buffer, pH 7.4, containing 1 mM phenylmethanesulfonyl fluoride using a Dounce glass homogenizer, and the suspension was centrifuged at 40,000 g for 10 min. The resulting pellet was resuspended and centrifuged once more, the final pellet was then suspended in 100 ml assay buffer per 1 guinea pig stomach to give a protein concentration of 200-300 μg/200 μl. The assay buffer consisted of 50 mM Tris buffer, pH 7.4, 5 mM MgCl2, 0.14 mg/ml bacitracin, and 1 μg/ml each of leupeptin, chymostatin, aprotinin and pepstatin. Reagent volumes for the assay were the same as those used for CCK binding to brain membranes. The radioactive ligand was 20 pM ^125 I-gastrin I, from DuPont NEN (NEX-176). The samples were incubated 3 hours at room temperature and filtered and counted as described for CCK binding to brain membranes. Compound samples were prepared and IC-50 values were determined as described for the CCK-brain receptor binding. Non-specific binding was determined using 100 nM gastrin I (human synthetic from Sigma Chemical Co.).

A short description of a further data set: pKa by titration. Conditions: 2:1 dmf:h2o, titration pKa.
Data set [1] deals with T3, peripheral type CCK receptors in rat pancreas (Rattus norvegicus, UniProt P30551).
T3 construct: Pancreas was obtained from male Sprague-Dawley rats; from tissue; host or cells: pancreas membranes of male Sprague-Dawley rats
T3 sequence (P30551 1-444): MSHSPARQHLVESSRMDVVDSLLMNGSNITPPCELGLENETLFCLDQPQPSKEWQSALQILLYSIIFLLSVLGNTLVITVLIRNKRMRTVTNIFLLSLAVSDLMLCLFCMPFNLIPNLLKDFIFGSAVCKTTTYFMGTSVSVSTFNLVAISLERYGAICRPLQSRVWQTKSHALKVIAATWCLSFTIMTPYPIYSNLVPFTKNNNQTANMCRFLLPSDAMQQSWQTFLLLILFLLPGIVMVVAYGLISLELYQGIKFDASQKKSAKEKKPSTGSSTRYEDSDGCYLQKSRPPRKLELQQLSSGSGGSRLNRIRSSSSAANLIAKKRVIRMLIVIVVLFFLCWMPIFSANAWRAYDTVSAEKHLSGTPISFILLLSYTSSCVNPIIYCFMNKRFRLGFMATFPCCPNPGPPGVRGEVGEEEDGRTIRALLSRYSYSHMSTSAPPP
Briefly: Binding to peripheral type CCK receptors in rat pancreas (3H-L-364,718). Conditions: at 10 μM; read-out: Pancreas Percent Inhibition. A digest of the protocol:
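Washed pancreatic membranes from male Sprague-Dawley rats (150-200 g) incubated 1 h at room temperature with 0.4-0.6 nM ³H-L-364,718 in 50 mM Tris pH 7.4, 5 mM MgCl2, bacitracin, 5 mM DTT. Bound radioactivity counted after filtration; nonspecific binding defined with 100 nM L-364,718; IC50 determined.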

A short description of another data set: Catalepsy bar test. Type of data set: in vivo, Male Sprague-Dawley rats. On the procedure: Acute administration of classical antipsychotic drugs results in catalepsy. Production of catalepsy is thought to be predictive of Parkinson-like extrapyramidal side effects. Sanberg, et al., Neuroscience 102:748-759 (1988). […] Haloperidol, a classical anti-psychotic, was used as a reference.
Male Sprague-Dawley rats (290-350 g) were used in these studies. Catalepsy was evaluated using the bar test (Sanberg et al., Neurosci., 102,748-759, (1988); Ferre, et al., Pharm. Biochem. Beh., 35, 753-757 (1990). The bar apparatus consisted of a horizontal metal rod with a diameter of 1 cm, which was positioned 10 cm from the floor to the top of the bar. The animal was gently placed in front of the bar, and then its forepaws were lifted to rest on the bar. The length of time, in seconds, until both forepaws touched the floor (3 minutes maximum allowed) was recorded. A baseline measurement was taken prior to injection, and catalepsy was evaluated every 60 minutes for three hours after injection of the compounds (Table IV). In a separate set of experiments, the compounds of this invention were administered 60 minutes prior to the administration of haloperidol, and catalepsy was evaluated every 60 minutes for three hours after the haloperidol injection. Catalepsy scores of drug-treated animals were compared to haloperidol- or vehicle-treated animals at each time point using the analysis of variance (ANOVA) (Table V). Haloperidol (Research Biochemicals Inc.) was dissolved in distilled water and a small amount of 0.1N lactic acid. The compounds of this invention were prepared in 50% ethanol. The volume of all injections was 1 ml/kg.

The nature of data set [2]: Block of haloperidol-induced catalepsy, bar test. Format: in vivo, Male Sprague-Dawley rats. To be noted: vehicle pretreatment, then Hal. On the procedure: Further, compounds of this invention were evaluated for their ability to block haloperidol-induced catalepsy. […] More preferredly, R and R^1 are trans.
Male Sprague-Dawley rats (290-350 g) were used in these studies. […] In a separate set of experiments, the compounds of this invention were administered 60 minutes prior to the administration of haloperidol, and catalepsy was evaluated every 60 minutes for three hours after the haloperidol injection. Catalepsy scores of drug-treated animals were compared to haloperidol- or vehicle-treated animals at each time point using the analysis of variance (ANOVA) (Table V). Haloperidol (Research Biochemicals Inc.) was dissolved in distilled water and a small amount of 0.1N lactic acid. The compounds of this invention were prepared in 50% ethanol. The volume of all injections was 1 ml/kg.

The source of these data is US5399565A, “Pyrazolidinone CCK and gastrin antagonists and pharmaceutical formulations therof” (priority 1993, dated 1995).

Each structure is given as a SMILES string.

Take `O=C1NN(C(=O)Nc2ccc(OCc3ccccc3)cc2)[C@@H](c2ccccc2)[C@@H]1c1ccccc1` (relative stereo) [Example 3, 1-[(4-Benzyloxyphenyl)aminocarbonyl]-4,5-diphenyl-3-pyrazolidinone]: the 50% inhibitory concentration (IC50) (as a rule, the concentration that inhibits the measured activity by half) stood at 54 nM on brain CCK receptor and 1100 nM on gastrin receptor. In addition, the pKa – broadly, the pH at which an ionisable group is half protonated – in “pKa by titration” (first or only value) amounted to 7.7. Also, in data set [1], the inhibition (usually the percentage by which the read-out fell short of the control) at 10 µM amounted to 34%.
Consider `O=C1NN(C(=O)c2cc3ccccc3[nH]2)[C@@H](c2ccccc2)[C@@H]1c1ccccc1` (relative stereo) [Example 14, 1-(Indole-2-carbonyl)-4,5-diphenyl-3-pyrazolidinone], for which the IC50 at brain CCK receptor was 2600 nM. The pKa in “pKa by titration” (first or only value) came to 6.75. Further, in data set [1], the inhibition at 10 µM stood at 60%.
For `O=C(CCCN1CCC(O)(c2ccc(Cl)cc2)CC1)c1ccc(F)cc1` [Haloperidol], the “Catalepsy Score” value worked out at 2.2 ± 0.3 s in “Catalepsy bar test” (0.25 mg/kg, 60 Min); 9.9 ± 2.7 s in the data set “Catalepsy bar test” (0.25 mg/kg, 120 Min, * P < 0.001 vs vehicle); 23.1 ± 4.9 s in the data set “Catalepsy bar test” (0.25 mg/kg, 180 Min, * P < 0.001 vs vehicle); 1.8 ± 1.1 s in the data set “Catalepsy bar test” (0.25 mg/kg, Pre); 3.3 ± 1.7 s in “Catalepsy bar test” (0.5 mg/kg, 60 Min); 17.6 ± 2.2 s in the data set “Catalepsy bar test” (0.5 mg/kg, 120 Min, * P < 0.001 vs vehicle). Further, the “Catalepsy Score” value was 33.5 ± 8.3 s in “Catalepsy bar test” (0.5 mg/kg, 180 Min, * P < 0.001 vs vehicle); 0.9 ± 0.2 s in “Catalepsy bar test” (0.5 mg/kg, Pre); 10.6 ± 6.3 s in “Catalepsy bar test” (1.0 mg/kg, 60 Min, * P < 0.001 vs vehicle); 100.0 ± 46.2 s in “Catalepsy bar test” (1.0 mg/kg, 120 Min, * P < 0.001 vs vehicle); 123.9 ± 39.7 s in “Catalepsy bar test” (1.0 mg/kg, 180 Min, * P < 0.001 vs vehicle); 1.2 ± 0.4 s in the data set “Catalepsy bar test” (1.0 mg/kg, Pre). Besides, the “Catalepsy Score” value in data set [2] (60 Min) came out at 9.72 ± 2.1 s; in data set [2] (120 Min) it was 27.42 ± 6 s; in data set [2] (180 Min), 30.61 ± 6.4 s; in data set [2] (Pre), 3.12 ± 0.61 s.
For the compound `CN(C)c1ccc(NC(=O)N2NC(=O)[C@@H](c3ccccc3)[C@@H]2c2ccccc2)cc1` (relative stereo) [Example 2, 1-[(4-N,N-Dimethylaminophenyl)aminocarbonyl]-4,5-diphenyl-3-pyrazolidinone], the IC50 at brain CCK receptor was found to be 290 nM. Further, the pKa in “pKa by titration” (first or only value) worked out at 4; in the data set “pKa by titration” (second value), 7.9. Also, in data set [1], the inhibition at 10 µM worked out at 14%.
Consider `O=C1NN(c2nc3ccc(Cl)cc3s2)[C@@H](c2ccccc2)[C@@H]1c1ccccc1` (relative stereo) [Example 9, 1-[6-Chloro-2-benzothiazolyl]-4,5-diphenyl-3-pyrazolidinone], for which the IC50 on brain CCK receptor was 3700 nM. Moreover, the pKa in “pKa by titration” (first or only value) was found to be 6.6. Moreover, the inhibition at 10 µM in data set [1] worked out at 33%.
`Nc1ccc(NC(=O)N2NC(=O)[C@@H](c3ccccc3)[C@@H]2c2ccccc2)cc1` (relative stereo) [Example 10, 1-[(4-Aminophenyl)aminocarbonyl]-4,5-diphenyl-3-pyrazolidinone]: the inhibition at 10 µM at brain CCK receptor (at 10 μM, read-out: Brain Percent Inhibition) was determined as 57%; in data set [1], 4%. Also, the results for the pKa in the data set “pKa by titration” (first or only value) and in “pKa by titration” (second value) were 4.5 and 8.1, respectively.
